The subject of experiment [1] is monocyte TNFα production induced by anti-CD3 antibody stimulated T-cells (Ttcr cells). The experiment in a line: Ttcr cell-induced TNFα production by monocytes (co-culture, ELISA). The class given is cell-based, Human. As to conditions: Homo sapiens, Monocyte; T cells:monocytes 5:1, 18 h co-culture; read-out: IC50, inhibition of monocyte TNFα production induced by Ttcr cells. The method, then: Human peripheral blood T cells and monocytes were isolated from single donor plateletpheresis residues (purchased from the North London Blood Transfusion service, Colindale, GB). Mononuclear cells were isolated by Ficoll/Hypaque centrifugation (specific density 1.077 g/ml, Nycomed Pharma AS, Oslo, Norway), prior to cell separation in a Beckman JE6 elutriator. Elutriation was performed in culture medium containing 1% heat-inactivated foetal calf serum (FCS) using methods known in the art (see Sebbag et al., 1997, Parry et al., 1997). T cell and monocyte purity were assessed by flow cytometry (see Sebbag et al., 1997).
Ttcr cells: Ttcr cells were prepared from elutriation enriched T cells by resuspending the cells at a density of 10^6 cells/ml in RPMI 1640 (containing 10% heat inactivated AB+ human serum (Biowhittaker, UK). Following resuspension, the cells were incubated (at 37° C. in a 5% CO2/95% humidified incubator) in 6-well culture plates with immobilised anti-CD3 monoclonal antibodies for 24 hours (OKT3, ATCC, Maryland, USA), the antibodies having previously been coated on to the 6-well culture plates at 10 μg/ml (overnight at 4° C.).
Following completion of the culture period, the Tck and Ttcr cells were harvested and washed three times in RPMI medium containing 1% heat-inactivated fetal calf serum (FCS), prior to fixation for 1 minute at 0° C. in PBS containing 0.05% glutaraldehyde, and neutralized with an equivalent volume of T lymphocyte neutralizing buffer containing 0.2 M glycine. […]
Reagents for the TNFα ELISA were provided by Dr. W. Buurman (Rijks Universiteit Limburg, Maastricht, Netherlands). […] The rabbit polyclonal antibody was detected using a peroxidase-conjugated goat anti-rabbit IgG (H+L) (Jackson Immunoresearch Laboratories Inc., Westgrove, PE, USA) followed by an appropriate substrate. […]
Monocytes were treated with M-CSF for 2 days as described above, infected with adenovirus containing either an insert encoding IκBα (AdvIκBα) or no insert (Adv0). The effect of IκBα over-expression on T cell-induced monocyte (ratio 5:1) TNFα production was then determined.
In general terms: In an ELISA, binding on a coated surface is turned into a signal by an enzyme label.

The subject of experiment [2] is monocyte TNFα production induced by RA CD3+ enriched cells. The experiment in a line: Monocyte TNFα production induced by fixed RA synovial CD3+ enriched T cells. In kind it is cell-based, Human. As to conditions: RA T cells:monocytes 5:1, 18 h. The method, then: Rheumatoid arthritis (RA) mononuclear cells were obtained from synovial tissue specimens provided by the Rheumatology Clinic, Charing Cross Hospital, London, UK. Tissue was teased into small pieces and digested in medium containing 0.15 mg/ml DNase type 1 (Sigma, UK) and 5 mg/ml collagenase (Roche, UK) for 1 to 2 hours at 37° C. After passing cells through nylon mesh to exclude cell debris, cells were washed and resuspended in RPMI medium (Biohittaker, Verviers, Belgium) (containing 10% heat-inactivated FCS) at a density of 1×10^6 cells/ml and used immediately.
CD3+ enriched cells were isolated from RA synovial mononuclear cells by direct, positive selection using Dynabeads (Dynal UK Ltd, Wirral, UK) coated with anti-CD3 monoclonal antibodies (anti-CD3 mAbs). Briefly, mononuclear cells (1×10^7) were cultured with 100 μl anti-CD3 mAb-coated Dynabeads for 20 minutes at 4° C. under constant rotation. Cells attached to beads were isolated using a magnetic particle concentrator (Dynal, Merseyside, UK) and cultured for 6 hours at 37° C. Detached cells were removed from magnetic beads and washed three times using the magnetic particle concentrator.
This technique allowed for isolation of CD3+ cells, yielding cells of high purity (>99%) and viability (>95%). Following isolation, CD3+ enriched cells were washed three times in RPMI medium containing 1% heat-inactivated FCS, fixed for 1 minute at 0° C. in phosphate-buffered saline (PBS) containing 0.05% glutaraldehyde, and neutralized with an equivalent volume of T lymphocyte neutralizing buffer containing 0.2 M glycine. Following a further three washes, the fixed CD3+ cells were resuspended (at a concentration of 2×10^6 cell/ml) in RPMI medium containing 5% heat-inactivated FCS, and stored for up to 7 days at 4° C. until used. Prior to use, CD3+ enriched cells were washed twice in complete medium.
Monocytes were cultured at 1×10^6 cells/ml in RPMI 1640 medium (containing 5% heat-inactivated FCS) in round-bottomed 96-well culture plates (Nunc Life Technologies Ltd., Paisley, Scotland) in the presence of fixed T cells at varying T-cell/monocyte ratios ranging from 1:1 to 7:1 (as indicated). In some experiments, a semi-permeable membrane insert (Nunc Life Technologies Ltd., Paisley, Scotland) was fitted into the culture wells to physically separate the monocytes from the T cells. In all experiments, efficient fixation of T cells was tested by incubating an aliquot of T-cells (7×10^6 cells/ml) in the absence of monocytes and assaying the amount of TNFα released by the cells under these conditions. Lipopolysaccharide (LPS, 10 ng/ml) was included in experiments as a positive control for monocyte cytokine production.
Reagents for the TNFα ELISA were provided by Dr. W. Buurman (Rijks Universiteit Limburg, Maastricht, Netherlands). The ELISA was performed using immobilized anti-TNFα mAb 61E71. and developed using a rabbit anti-TNFα polyclonal antibody. An alternative ELISA for TNFα is commercially available from Pharmingen. The rabbit polyclonal antibody was detected using a peroxidase-conjugated goat anti-rabbit IgG (H+L) (Jackson Immunoresearch Laboratories Inc., Westgrove, PE, USA) followed by an appropriate substrate. The sensitivity range of the assay was 1.6 to 5000 pg/ml.
For monocyte/T-cell co-culture experiments, monocytes were cultured with relevant enzyme inhibitors at 37° C. for varying periods of time (see legend to Table 2) prior to co-culture with fixed T-cells for 18 hours. Supernatants were harvested and assayed for presence of TNFα by ELISA. Cell suspensions were taken for determination of cell viability. […]
The effect of wortmannin and LY294002 was also studied on monocyte TNFα production induced by RA CD3+ ve enriched cells (see Table 2). Normal monocytes isolated by elutriation were treated with selective enzyme inhibitors for the designated times prior to co-culture with fixed rheumatoid CD3+ T cells at a ratio 5:1 (T cells to monocytes) for 18 hours. […]

These results are taken from US7390630B1, “Method of identifying a compound that selectively inhibits cytokine-stimulated T cell induced production of TNF-alpha by monocytes” (Mathilda and Terence Kennedy Institute of Rheumatology Trust, priority 1999, dated 2008).

Structures are written as SMILES. Values joined by “and” are separate entries in the source; they are usually repeats but may differ in a detail not shown here. Identical values can stand only once.

The term IC50 denotes the midpoint of a concentration-inhibition curve.

As to `O=c1cc(N2CCOCC2)oc2c(-c3ccccc3)cccc12` [LY294002], the IC50 in experiment [1] came to 70 nM. Further, the “TNFα” value in experiment [2] (LY294002 50 μM 30 min, Wortmannin 500 nM 30 min, AKTA 5 mM 30 min, Rapamycin 10 μM 60 min, untreated control 686 ± 59, mean ±SD) was 883 ± 304 pg/mL and 883 ± 38 pg/mL. In addition, the Percent change entry in experiment [2] (change of TNFα versus untreated control, LY294002 50 μM, Wortmannin 500 nM, AKTA 5 mM, Rapamycin 10 μM) is given as “+29%”.
